# Experimental data taken from ChEMBL document CHEMBL1137044, “Benzothiophene and naphthalene derived constrained SERMs” (Bioorg Med Chem Lett, 2004).
# What was measured:
# Estrogen receptor [1] = target: T1, Estrogen receptor (Homo sapiens, UniProt Q92731+P03372); assay: Antagonist effect against 10 pM 17-beta-estradiol induced MCF-7 cell proliferation; format: functional, cell-based
# Estrogen receptor [2] = target: T1, Estrogen receptor; assay: Agonist activity as alkaline phosphatase induction in Ishikawa endometrial cells compared to E2; format: functional, cell-based
# Estrogen receptor [3] = target: T1, Estrogen receptor; format: functional, cell-based; conditions: ishikawa
# [4] = Inhibition of [3H]estradiol binding to Estrogen receptor alpha
# [5] = Inhibition of [3H]estradiol binding to Estrogen receptor beta
Compound,IC50 (Estrogen receptor [1]) [nM],EC50 (Estrogen receptor [2]) [nM],IC50 (Estrogen receptor [3]) [nM],Ki [4] [nM],Ki [5] [nM]
Oc1ccc2c(c1)Cc1sc3cc(O)ccc3c1C2c1ccc(C(O)CCN2CCCCC2)cc1 (stereo not drawn),0.7,0.4,45,0.7,1.3
Oc1ccc2c3c(sc2c1)Cc1ccccc1C3c1ccc(C(O)CCN2CCCCC2)cc1 (stereo not drawn),17,3.5,710,2.4,5.3
Oc1ccc2c(ccc3cc4ccc(O)cc4c(-c4ccc(OCCN5CCCCC5)cc4)c32)c1,57,10,820,0.8,0.5
Oc1ccc2c3c(sc2c1)Cc1cccc(O)c1C3c1ccc(C(O)CCN2CCCCC2)cc1 (stereo not drawn),42,3.1,680,2.6,14
Oc1ccc2c(c1)sc1cc3ccc(O)cc3c(-c3ccc(C(O)CCN4CCCCC4)cc3)c12 (stereo not drawn),1,1.6,690,0.4,0.3
CCC(=C(c1ccc(O)cc1)c1ccc(OCCN(C)C)cc1)c1ccccc1,,,,0.5,0.5

# The next lines start with the values.
IC50 (Estrogen receptor [1]) [nM],EC50 (Estrogen receptor [2]) [nM],IC50 (Estrogen receptor [3]) [nM],Ki [4] [nM],Ki [5] [nM],Compound
6.6,2.6,130,1,3.2,Oc1ccc2c(c1)C(c1ccc(OCCN3CCCCC3)cc1)c1c(ccc3cc(O)ccc13)C2 (stereo not drawn)
,,,0.8,4.2,Oc1ccc2c(c1)Cc1ccc3cc(O)ccc3c1C2c1ccc(OCCN2CCCCC2)cc1 (stereo in doubt; form 2)
0.9,0.9,53,0.5,0.9,Oc1ccc2c(c1)C(c1ccc(C(O)CCN3CCCCC3)cc1)c1c(sc3cc(O)ccc13)C2 (stereo not drawn)
2.9,0.7,50,1.1,5.4,Oc1ccc2c3c(ccc2c1)Cc1c(O)cccc1C3c1ccc(OCCN2CCCCC2)cc1 (stereo not drawn)
68,28,580,7.7,40,Oc1ccc2c3c(ccc2c1)Cc1cccc(O)c1C3c1ccc(OCCN2CCCCC2)cc1 (stereo not drawn)
,,,0.7,4.4,"Oc1ccc2c(c1)Cc1ccc3cc(O)ccc3c1C2c1ccc(OCCN2CCCCC2)cc1 (single isomer, unassigned)"
,,,1.1,5.5,Oc1ccc2c(c1)Cc1ccc3cc(O)ccc3c1C2c1ccc(OCCN2CCCCC2)cc1 (stereo in doubt; form 1)
